Assay results from ChEMBL document CHEMBL3885861, “Open TG-GATES”.

Organism: Rattus norvegicus
Assay: Open TG-GATES - Regimen: Daily Repeat
Type: toxicity, organism-based, Sprague-Dawley
Set-up: regimen Daily Repeat, gender Male, age 6 weeks
Conditions: in vivo, po, route gavage; for APTT / Bas / Eos / Fbg / Hb / Ht / Lym / MCH / MCHC / MCV / Mono / PT / Plat / RBC / Ret / WBC: tissue Blood; for KIDNEY_L / KIDNEY_R / KIDNEY_TOTAL: tissue Kidney; for ALP / ALT / AST / BUN / CRE / Ca / DBIL / GLC / IP / K / LDH / Na / PL / RALB / TBIL / TC / TG / TP / gamma-GTP: tissue Plasma
[1] = 0 mg/kg, 72 h, dose level Control, time 3 day
[2] = 0 mg/kg, […], dose level Control, time 7 day
[3] = 0 mg/kg, […], dose level Control, time 14 day
[4] = 0 mg/kg, […], dose level Control, time 28 day
[5] = 20 mg/kg, 72 h, dose level Low, time 3 day
[6] = 20 mg/kg, […], dose level Low, time 7 day
[7] = 20 mg/kg, […], dose level Low, time 14 day
[8] = 20 mg/kg, […], dose level Low, time 28 day
[9] = 60 mg/kg, 72 h, dose level Middle, time 3 day

SMILES: CC(C)Cc1ccc(C(C)C(=O)O)cc1 (centres undefined) [IBUPROFEN]
- TERMINAL_BW [1]: 222.9 g
- APTT [1]: 20.4 s
- Bas [1]: 0%
- Eos [1]: 1%
- Fbg [1]: 283.4 mg/dL
- Hb [1]: 13.2 g/dL
- Ht [1]: 38.4%
- Lym [1]: 79.8%
- MCH [1]: 22.3 pg
- MCHC [1]: 34.5%
- MCV [1]: 64.7 fL
- Mono [1]: 2.8%
- PT [1]: 15.5 s
- Plat [1]: 111.7 x10_4/uL
- RBC [1]: 593 x10_4/ul
- Ret [1]: 6.7%
- WBC [1]: 110.2 x10_2/uL
- KIDNEY_L [1]: 0.9 g
- KIDNEY_R [1]: 1 g
- KIDNEY_TOTAL [1]: 1.9 g
- ALP [1]: 1697.6 IU/L
- ALT [1]: 44.8 IU/L
- AST [1]: 76.6 IU/L
- BUN [1]: 17.2 mg/dL
- CRE [1]: 0.2 mg/dL
- Ca [1]: 11 mg/dL
- DBIL [1]: 0 mg/dL
- GLC [1]: 200 mg/dL
- IP [1]: 7.7 mg/dL
- K [1]: 4.1 meq/L
- LDH [1]: 208 IU/L
- Na [1]: 141.4 meq/L
- PL [1]: 143.6 mg/dL
- RALB [1]: 3 g/dL
- TBIL [1]: 0.006 mg/dL
- TC [1]: 77 mg/dL
- TG [1]: 84 mg/dL
- TP [1]: 5.5 g/dL
- gamma-GTP [1]: 1.2 IU/L
- TERMINAL_BW [2]: 270 g
- TERMINAL_BW [3]: 304.6 g
- TERMINAL_BW [4]: 398.5 g
- APTT [2]: 21.5 s
- Bas [2]: 0%
- Eos [2]: 0.8%
- Fbg [2]: 292.8 mg/dL
- Hb [2]: 13.1 g/dL
- Ht [2]: 37.3%
- Lym [2]: 80%
- MCH [2]: 21.6 pg
- MCHC [2]: 35%
- MCV [2]: 61.7 fL
- Mono [2]: 2.4%
- PT [2]: 16.1 s
- Plat [2]: 123.8 x10_4/uL
- RBC [2]: 604.6 x10_4/ul
- Ret [2]: 6.7%
- WBC [2]: 126 x10_2/uL
- Bas [3]: 0%
- Eos [3]: 0.6%
- Fbg [3]: 355.2 mg/dL
- Ht [3]: 41.1%
- Lym [3]: 83.8%
- MCHC [3]: 34.7%
- MCV [3]: 59.9 fL
- Mono [3]: 2%
- PT [3]: 16 s
- Plat [3]: 115.8 x10_4/uL
- RBC [3]: 686.2 x10_4/ul
- Ret [3]: 4.9%
- WBC [3]: 104.5 x10_2/uL
- APTT [4]: 21.9 s
- Bas [4]: 0%
- Eos [4]: 1.2%
- Fbg [4]: 340.2 mg/dL
- Hb [4]: 14.8 g/dL
- Ht [4]: 43%
- Lym [4]: 84.4%
- MCH [4]: 19.2 pg
- MCHC [4]: 34.4%
- MCV [4]: 55.9 fL
- Mono [4]: 2.2%
- PT [4]: 16.9 s
- RBC [4]: 768.2 x10_4/ul
- Ret [4]: 2.7%
- KIDNEY_L [2]: 1.1 g
- KIDNEY_R [2]: 1.2 g
- KIDNEY_TOTAL [2]: 2.3 g
- KIDNEY_L [3]: 1.2 g
- KIDNEY_R [3]: 1.2 g
- KIDNEY_TOTAL [3]: 2.4 g
- KIDNEY_L [4]: 1.3 g
- KIDNEY_R [4]: 1.4 g
- KIDNEY_TOTAL [4]: 2.7 g
- ALP [2]: 1943 IU/L
- ALT [2]: 46.8 IU/L
- AST [2]: 76.6 IU/L
- BUN [2]: 18.6 mg/dL
- CRE [2]: 0.2 mg/dL
- DBIL [2]: 0 mg/dL
- GLC [2]: 179.2 mg/dL
- IP [2]: 7.6 mg/dL
- K [2]: 4.2 meq/L
- LDH [2]: 170.2 IU/L
- Na [2]: 138.6 meq/L
- PL [2]: 136.2 mg/dL
- RALB [2]: 3.1 g/dL
- TBIL [2]: 0.004 mg/dL
- TC [2]: 71.2 mg/dL
- TG [2]: 100.8 mg/dL
- TP [2]: 5.5 g/dL
- gamma-GTP [2]: 2.6 IU/L
- ALP [3]: 1425.2 IU/L
- ALT [3]: 37.4 IU/L
- AST [3]: 65.8 IU/L
- BUN [3]: 19.2 mg/dL
- CRE [3]: 0.2 mg/dL
- DBIL [3]: 0 mg/dL
- GLC [3]: 200.4 mg/dL
- IP [3]: 7.7 mg/dL
- K [3]: 4.1 meq/L
- LDH [3]: 118.4 IU/L
- Na [3]: 140.6 meq/L
- PL [3]: 149 mg/dL
- RALB [3]: 3 g/dL
- TBIL [3]: 0.012 mg/dL
- TC [3]: 73.4 mg/dL
- TP [3]: 5.8 g/dL
- gamma-GTP [3]: 2.2 IU/L
- ALP [4]: 1191 IU/L
- ALT [4]: 35.2 IU/L
- AST [4]: 66.2 IU/L
- CRE [4]: 0.2 mg/dL
- DBIL [4]: 0 mg/dL
- GLC [4]: 196 mg/dL
- IP [4]: 6.3 mg/dL
- K [4]: 4.1 meq/L
- LDH [4]: 170.6 IU/L
- Na [4]: 140.8 meq/L
- PL [4]: 144.6 mg/dL
- RALB [4]: 3.2 g/dL
- TBIL [4]: 0.002 mg/dL
- TC [4]: 66.6 mg/dL
- TG [4]: 143.8 mg/dL
- TP [4]: 6.1 g/dL
- gamma-GTP [4]: 3 IU/L
- TERMINAL_BW [5]: 230.1 g
- APTT [5]: 21.4 s
- Bas [5]: 0%
- Eos [5]: 0.6%
- Fbg [5]: 301 mg/dL
- Hb [5]: 13.6 g/dL
- Ht [5]: 39.5%
- Lym [5]: 75.8%
- MCH [5]: 22 pg
- MCHC [5]: 34.3%
- MCV [5]: 64 fL
- Mono [5]: 3%
- PT [5]: 15.5 s
- Plat [5]: 120.5 x10_4/uL
- RBC [5]: 617.6 x10_4/ul
- Ret [5]: 6.7%
- WBC [5]: 117.5 x10_2/uL
- KIDNEY_L [5]: 1 g
- KIDNEY_R [5]: 1 g
- KIDNEY_TOTAL [5]: 2 g
- ALP [5]: 1847.8 IU/L
- ALT [5]: 42.8 IU/L
- AST [5]: 75 IU/L
- BUN [5]: 17.8 mg/dL
- CRE [5]: 0.2 mg/dL
- Ca [5]: 11 mg/dL
- DBIL [5]: 0 mg/dL
- GLC [5]: 182.8 mg/dL
- IP [5]: 7.4 mg/dL
- K [5]: 4.4 meq/L
- LDH [5]: 222 IU/L
- Na [5]: 141.4 meq/L
- PL [5]: 152.6 mg/dL
- RALB [5]: 3.1 g/dL
- TBIL [5]: 0.004 mg/dL
- TC [5]: 81.4 mg/dL
- TG [5]: 113.6 mg/dL
- TP [5]: 5.6 g/dL
- gamma-GTP [5]: 1.2 IU/L
- TERMINAL_BW [6]: 245.9 g
- TERMINAL_BW [7]: 307.6 g
- TERMINAL_BW [8]: 358.8 g
- Bas [6]: 0%
- Eos [6]: 1%
- Fbg [6]: 311 mg/dL
- Hb [6]: 13.6 g/dL
- Ht [6]: 39.4%
- Lym [6]: 75.6%
- MCH [6]: 21.4 pg
- MCHC [6]: 34.6%
- MCV [6]: 61.9 fL
- Mono [6]: 2.8%
- PT [6]: 15.9 s
- Plat [6]: 121 x10_4/uL
- RBC [6]: 638 x10_4/ul
- Ret [6]: 5.8%
- APTT [7]: 24 s
- Bas [7]: 0%
- Eos [7]: 0.8%
- Fbg [7]: 339.6 mg/dL
- Ht [7]: 41%
- Lym [7]: 80.4%
- MCHC [7]: 34.6%
- MCV [7]: 60.2 fL
- Mono [7]: 2.2%
- PT [7]: 15.8 s
- Plat [7]: 116.9 x10_4/uL
- RBC [7]: 682.4 x10_4/ul
- Ret [7]: 4.7%
- WBC [7]: 120.7 x10_2/uL
- Bas [8]: 0%
- Eos [8]: 1.2%
- Fbg [8]: 317.5 mg/dL
- Hb [8]: 14.8 g/dL
- Ht [8]: 43%
- Lym [8]: 78.5%
- MCH [8]: 19.2 pg
- MCHC [8]: 34.5%
- MCV [8]: 55.8 fL
- Mono [8]: 2.5%
- Plat [8]: 98.8 x10_4/uL
- RBC [8]: 771 x10_4/ul
- Ret [8]: 2.8%
- WBC [8]: 94.9 x10_2/uL
- KIDNEY_L [6]: 1.1 g
- KIDNEY_R [6]: 1.1 g
- KIDNEY_TOTAL [6]: 2.1 g
- KIDNEY_L [7]: 1.2 g
- KIDNEY_R [7]: 1.2 g
- KIDNEY_TOTAL [7]: 2.4 g
- KIDNEY_L [8]: 1.3 g
- KIDNEY_R [8]: 1.3 g
- KIDNEY_TOTAL [8]: 2.5 g
- ALP [6]: 1657.2 IU/L
- ALT [6]: 43.6 IU/L
- AST [6]: 73 IU/L
- BUN [6]: 18 mg/dL
- CRE [6]: 0.2 mg/dL
- DBIL [6]: 0 mg/dL
- GLC [6]: 183.4 mg/dL
- IP [6]: 6.8 mg/dL
- K [6]: 4.1 meq/L
- LDH [6]: 167.2 IU/L
- Na [6]: 139.8 meq/L
- PL [6]: 150.8 mg/dL
- RALB [6]: 3 g/dL
- TBIL [6]: 0.004 mg/dL
- TC [6]: 71.6 mg/dL
- TG [6]: 128.2 mg/dL
- TP [6]: 5.6 g/dL
- gamma-GTP [6]: 2.2 IU/L
- ALP [7]: 1385.4 IU/L
- ALT [7]: 45 IU/L
- AST [7]: 73.4 IU/L
- CRE [7]: 0.2 mg/dL
- DBIL [7]: 0 mg/dL
- GLC [7]: 197.2 mg/dL
- IP [7]: 7.2 mg/dL
- K [7]: 3.9 meq/L
- LDH [7]: 129.4 IU/L
- Na [7]: 141.8 meq/L
- PL [7]: 150 mg/dL
- RALB [7]: 3.1 g/dL
- TBIL [7]: 0.006 mg/dL
- TC [7]: 75.4 mg/dL
- TG [7]: 122.6 mg/dL
- TP [7]: 5.7 g/dL
- gamma-GTP [7]: 2.4 IU/L
- ALP [8]: 1303 IU/L
- ALT [8]: 38.8 IU/L
- AST [8]: 67.5 IU/L
- CRE [8]: 0.2 mg/dL
- DBIL [8]: 0 mg/dL
- GLC [8]: 196 mg/dL
- IP [8]: 5.6 mg/dL
- K [8]: 3.7 meq/L
- LDH [8]: 181.8 IU/L
- Na [8]: 142.5 meq/L
- PL [8]: 149.8 mg/dL
- RALB [8]: 3.3 g/dL
- TBIL [8]: 0.005 mg/dL
- TC [8]: 72.5 mg/dL
- TG [8]: 129.5 mg/dL
- TP [8]: 6.1 g/dL
- gamma-GTP [8]: 2.8 IU/L
- TERMINAL_BW [9]: 227 g
- APTT [9]: 20.5 s
- Bas [9]: 0%
